The values that follow are results of earlier work, collected in the PKSmart pharmacokinetics tables (Seal et al. 2025).

One may read the MRT as a mean duration of stay, worked out from the concentration-time curve. The Vd is the apparent volume that relates the amount in the body to the concentration in plasma or blood. A word on the clearance: it is the rate of elimination divided by the concentration. Broadly, the half-life is the time in which the quantity being followed falls by half. One may read the fraction unbound as free concentration divided by total concentration.

Data set [1] can be described thus: Lombardo, Berellini, Obach 2018, Drug Metab Dispos 46:1466, doi 10.1124/dmd.118.082966. As to conditions: human; for MRT / Vd / clearance / half-life: in vivo, iv; for fraction unbound: plasma.
Data set [2] is described as follows: Lombardo et al. 2013, J Clin Pharmacol 53:178, doi 10.1177/0091270012440282. The note with it: for clearance / Vd: in vivo, iv; for fraction unbound: plasma.

Molecules are shown by their SMILES.

Take `Nc1nc(NC2CC2)c2ncn([C@H]3C=C[C@@H](CO)C3)c2n1`: in data set [1], the MRT was 1.1 h, the distribution volume (Vd) was 0.84 L/kg, the clearance is 13 mL/min/kg and the half-life was 1 h. In addition, the fraction unbound in data set [1] is 0.5. Moreover, the clearance in data set [2] (rat) is 30 mL/min/kg.

For `C#C[C@]1(O)CC[C@H]2[C@@H]3CCc4cc(O)ccc4[C@H]3CC[C@@]21C`, in data set [1], the MRT was 11 h, the Vd was 4.3 L/kg, the clearance is 7 mL/min/kg and the half-life is 9.7 h. Also, the unbound share (fraction unbound) in data set [1] was 0.014. Moreover, in data set [2] (dog), the Vd is 17 L/kg and the clearance was 25 mL/min/kg. In data set [2] (monkey), the Vd is 7.2 L/kg, the clearance is 36 mL/min/kg and the fraction unbound was 0.0099. In data set [2] (rat), the volume of distribution (Vd) was 5.7 L/kg, the clearance is 55 mL/min/kg and the fraction unbound is 0.0088.

With `NC(=O)c1ncn([C@@H]2O[C@H](CO)[C@@H](O)[C@H]2O)n1`, in data set [1], the MRT is 45 h, the clearance was 5.2 mL/min/kg and the half-life is 45 h. In addition, in data set [2] (monkey), the clearance is 3.7 mL/min/kg and the fraction unbound was 0.497. The clearance in data set [2] (rat) was 43 mL/min/kg.

`O=C1c2ccccc2S(=O)(=O)N1CCCCNC[C@H]1CCc2ccccc2O1`: in data set [1], the MRT is 1.6 h, the volume of distribution (Vd) is 0.21 L/kg, the clearance was 2.2 mL/min/kg and the half-life is 1.2 h. In addition, in data set [2] (rat), the Vd is 1.48 L/kg, the clearance is 38.3 mL/min/kg and the fraction unbound was 0.054.

`CC[C@@]1(O)CC(=O)OCc2c1cc1n(c2=O)Cc2cc3cc(F)c(F)cc3nc2-1`: in data set [1], the MRT is 3.87 h, the Vd is 1.42 L/kg, the clearance is 8.42 mL/min/kg and the half-life was 3.1 h. Moreover, the fraction unbound in data set [1] was 0.126. In addition, in data set [2] (dog), the volume of distribution (Vd) was 2.1 L/kg and the clearance was 21.5 mL/min/kg. Further, in data set [2] (rat), the Vd was 2 L/kg and the clearance is 23 mL/min/kg.

Turning to `Oc1ccc2c3c1O[C@H]1[C@@H](O)CC[C@@]4(O)[C@@H](C2)N(CC2CCC2)CC[C@]314`, in data set [1], the mean residence time (MRT) was 3.5 h, the distribution volume (Vd) was 4.6 L/kg, the clearance was 22 mL/min/kg and the half-life is 3.7 h. Moreover, in data set [2] (rat), the volume of distribution (Vd) is 11 L/kg and the clearance was 111 mL/min/kg.

As for `CC(C)(ON=C(C(=O)NC1C(=O)N2C(C(=O)O)=C(C[n+]3ccccc3)CS[C@H]12)c1csc(N)n1)C(=O)[O-]` (some centres undefined), in data set [1], the mean residence time MRT is 2.2 h, the Vd was 0.31 L/kg, the clearance is 2.4 mL/min/kg and the half-life was 1.8 h. For the same compound, the fraction unbound in data set [1] was 0.79. In data set [2] (dog), the Vd is 0.21 L/kg, the clearance is 3.2 mL/min/kg and the fraction unbound is 1. In data set [2] (monkey), the distribution volume (Vd) is 0.26 L/kg, the clearance is 2.1 mL/min/kg and the fraction unbound was 0.945. Besides, in data set [2] (rat), the volume of distribution (Vd) was 0.3 L/kg and the clearance was 8.7 mL/min/kg.

Regarding `CC#CCC(C)[C@H](O)/C=C/[C@@H]1[C@H]2C/C(=C/CCCC(=O)O)C[C@H]2C[C@H]1O` (some centres undefined), in data set [1], the volume of distribution (Vd) was 0.37 L/kg, the clearance was 16 mL/min/kg, the half-life was 0.57 h and the unbound share (fraction unbound) was 0.4. In data set [2] (dog), the Vd was 0.93 L/kg and the clearance is 67.2 mL/min/kg. Also, in data set [2] (rat), the volume of distribution (Vd) is 0.79 L/kg and the clearance is 32.4 mL/min/kg.

For `CCCC(C)C1(CC)C(=O)NC(=O)NC1=O` (centres undefined), in data set [1], the mean residence time (MRT) was 32 h, the Vd is 0.91 L/kg, the clearance is 0.47 mL/min/kg and the half-life is 22 h. Further, the free fraction (fraction unbound) in data set [1] is 0.39. Besides, in data set [2] (dog), the Vd was 1.06 L/kg and the clearance is 1.3 mL/min/kg. Besides, in data set [2] (rat), the volume of distribution (Vd) is 1.64 L/kg, the clearance is 8.4 mL/min/kg and the free fraction (fraction unbound) was 0.5.

`CON=C(C(=O)NC1C(=O)N2C(C(=O)O)=C(COC(C)=O)CS[C@H]12)c1csc(N)n1` (some centres undefined): in data set [1], the MRT is 1.2 h, the volume of distribution (Vd) was 0.19 L/kg, the clearance is 2.7 mL/min/kg and the half-life was 1.2 h. Further, the free fraction (fraction unbound) in data set [1] is 0.6. Also, in data set [2] (dog), the distribution volume (Vd) was 0.5 L/kg and the clearance is 8.13 mL/min/kg. The unbound share (fraction unbound) in data set [2] (rat) was 0.59.

Take `COc1ccc(CCNCC(O)COc2cccc(C)c2)cc1OC` (centres undefined): in data set [1], the MRT was 2 h, the volume of distribution (Vd) was 0.67 L/kg, the clearance was 5.5 mL/min/kg and the half-life was 1.9 h. The fraction unbound in data set [1] was 0.015. In addition, in data set [2] (dog), the distribution volume (Vd) was 4 L/kg, the clearance was 45 mL/min/kg and the unbound share (fraction unbound) is 0.04. Further, the fraction unbound in data set [2] (rat) was 0.06.

As for `COC(=O)C1[C@@H](OC(=O)c2ccccc2)C[C@@H]2CC[C@H]1N2C` (some centres undefined), in data set [1], the MRT is 1 h, the Vd was 2 L/kg, the clearance is 32 mL/min/kg and the half-life is 0.76 h. Further, the free fraction (fraction unbound) in data set [1] is 0.12. Further, in data set [2] (dog), the volume of distribution (Vd) was 2.6 L/kg, the clearance was 48.7 mL/min/kg and the unbound share (fraction unbound) was 0.76. In data set [2] (rat), the volume of distribution (Vd) is 16.4 L/kg, the clearance is 253 mL/min/kg and the fraction unbound is 0.78.

`CCOC(=O)c1ncn2c1CN(C)C(=O)c1cc(F)ccc1-2`: in data set [1], the MRT is 1 h, the clearance is 16 mL/min/kg and the half-life was 0.78 h. Moreover, in data set [2] (dog), the Vd was 1 L/kg, the clearance was 16 mL/min/kg and the fraction unbound is 0.685. Besides, in data set [2] (rat), the Vd was 1.3 L/kg and the clearance was 147 mL/min/kg.
